pIC50: −log10 of the molar value. Where a name gives a salt, the structure may show the parent alone. Read-outs that look alike come from different tables or passages of the source.

The target in this assay is human SPR (Homo sapiens (Human), UniProt P35270). As to the kind of experiment: Evaluation Example 2: Measurement of human SPR inhibitory activity (seven concentrations, sepiapterin absorbance at 420 nm). In kind it is biochemical. In a few lines:
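His-tagged full-length human SPR (1-261) was expressed in E. coli and the tag removed. Enzyme at 150 ng/mL in 100 mM Tris-HCl pH 7.5/0.01% BSA was mixed with compound (0.14–100 nM, seven points), 120 μM sepiapterin and 160 μM NADPH, both as added-solution concentrations. After 240 min at room temperature, remaining sepiapterin was read at 420 nm to give percent inhibition.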

The mark [1] stands for this setting: Evaluation Example 2, seven concentrations 0.14 nM to 100 nM, 240 minutes at room temperature, read-out: IC50.
The mark [2] stands for this setting: sepiapterin absorbance, Table 41, read-out: concentration at 50% inhibition of human SPR (IC50).

human SPR, sequence (P35270 whole entry): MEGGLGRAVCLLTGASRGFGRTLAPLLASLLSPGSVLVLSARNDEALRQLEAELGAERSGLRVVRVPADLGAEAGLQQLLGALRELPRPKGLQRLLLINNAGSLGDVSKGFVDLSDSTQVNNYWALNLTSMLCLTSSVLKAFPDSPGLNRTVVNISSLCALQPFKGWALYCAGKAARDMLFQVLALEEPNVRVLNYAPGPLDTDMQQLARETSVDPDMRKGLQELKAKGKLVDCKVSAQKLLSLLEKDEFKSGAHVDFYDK

With `CC(C)Cn1c(=O)c(C(=O)NC2CC2)c(O)n2ncc(/C=C/C(=O)N3CCC3)c12` [compound 553, (E)-3-(3-(Azetidin-1-yl)-3-oxoprop-1-en-1-yl)-N-cyclopropyl-7-hydroxy-4-isobutyl-5-oxo-4,5-dihydropyrazolo[1,5-a]pyrimidine-6-carboxamide], under setting [1], the pIC50 was 9.00. Still for that read-out and setting: then `CC(C)Cn1c(=O)c(C(=O)NC2CC2)c(O)n2nc(NC(=O)OC(C)(C)C)c(/C=C/C(=O)N3CCOCC3)c12` [Synthesis Example 415, Tert-butyl (E)-(6-(cyclopropylcarbamoyl)-7-hydroxy-4-isobutyl-3-(3-morpholino-3-oxoprop-1-en-1-yl)-5-oxo-4,5-dihydropyrazolo[1,5-a]pyrimidin-2-yl)carbamate], with 9.13; and `CCc1c(N)nn2c(O)c(C(=O)NC3CC3)c(=O)n(CC(C)(C)C)c12` [Synthesis Example 436, 2-Amino-N-cyclopropyl-3-ethyl-7-hydroxy-4-neopentyl-5-oxo-4,5-dihydropyrazolo[1,5-a]pyrimidine-6-carboxamide hydrochloride], with 8.92. On the same count and under the same terms, then `Cc1nn2c(O)c(C(=O)NC3CC3)c(=O)n(CC(C)C)c2c1/C=C/C(=O)N1CCCC12CCN(C(C)C)CC2` [Synthesis Example 678, (E)-N-Cyclopropyl-7-hydroxy-4-isobutyl-3-(3-(8-isopropyl-1,8-diazaspiro[4.5]decan-1-yl)-3-oxoprop-1-en-1-yl)-2-methyl-5-oxo-4,5-dihydropyrazolo[1,5-a]pyrimidine-6-carboxamide], with 8.93.

In the case of `O=C(NC1CC1)c1c(O)n2ncc(/C=C/C(=O)N3CCOCC3)c2n(CC2CCC2)c1=O` [Synthesis Example 381, (E)-4-(Cyclobutylmethyl)-N-cyclopropyl-7-hydroxy-3-(3-morpholino-3-oxoprop-1-en-1-yl)-5-oxo-4,5-dihydropyrazolo[1,5-a]pyrimidine-6-carboxamide], under setting [1], the pIC50 was 9.15.

In the case of `Cc1nn2c(O)c(C(=O)NC3CC3)c(=O)n(CC(C)C)c2c1/C=C/C(=O)N1CC[C@@H](C(C)(C)O)C1` [Synthesis Example 700, (R,E)-N-Cyclopropyl-7-hydroxy-3-(3-(3-(2-hydroxypropan-2-yl)pyrrolidin-1-yl)-3-oxoprop-1-en-1-yl)-4-isobutyl-2-methyl-5-oxo-4,5-dihydropyrazolo[1,5-a]pyrimidine-6-carboxamide], the pIC50 under setting [2] was 9.02. For the compound `CC(C)Cn1c(=O)c(C(=O)NC2CC2)c(O)n2ncc(/C=C/C(=O)N3CCC[C@@H](CO)C3)c12` [compound 520, (R,E)-N-Cyclopropyl-7-hydroxy-3-(3-(3-(hydroxymethyl)piperidin-1-yl)-3-oxoprop-1-en-1-yl)-4-isobutyl-5-oxo-4,5-dihydropyrazolo[1,5-a]pyrimidine-6-carboxamide], under setting [1], the pIC50 was 9.11. The same measure, in the same setting: then `CC(C)(C)Cn1c(=O)c(C(=O)NC2CC2)c(O)n2nc(Nc3cnc(C(=O)N4CCC(F)(F)CC4)cn3)cc12` [Synthesis Example 355, N-Cyclopropyl-2-((5-(4,4-difluoropiperidine-1-carbonyl)pyrazin-2-yl)amino)-7-hydroxy-4-neopentyl-5-oxo-4,5-dihydropyrazolo[1,5-a]pyrimidine-6-carboxamide], with 8.96; and `Cn1ccc(Nc2cc3n(CC(C)(C)C)c(=O)c(C(=O)NC4CC4)c(O)n3n2)n1` [Synthesis Example 346, N-Cyclopropyl-7-hydroxy-2-((1-methyl-1H-pyrazol-3-yl)amino)-4-neopentyl-5-oxo-4,5-dihydropyrazolo[1,5-a]pyrimidine-6-carboxamide], with 8.75.

On to `Cc1nn2c(O)c(C(=O)NC3CC3)c(=O)n(CC(C)C)c2c1/C=C/C(=O)N1CCOc2ccccc21` [Synthesis Example 696, (E)-N-Cyclopropyl-3-(3-(2,3-dihydro-4H-benz[b][1,4]oxazin-4-yl)-3-oxoprop-1-en-1-yl)-7-hydroxy-4-isobutyl-2-methyl-5-oxo-4,5-dihydropyrazolo[1,5-a]pyrimidine-6-carboxamide], for which the pIC50 under setting [2] was 8.77. `CC(C)Cn1c(=O)c(C(=O)NC2CC2)c(O)n2ncc(/C=C/C(=O)N3CCC4CC43)c12` (racemic) [compound 588, (E)-3-(3-(2-Azabicyclo[3.1.0]hexan-2-yl)-3-oxoprop-1-en-1-yl)-N-cyclopropyl-7-hydroxy-4-isobutyl-5-oxo-4,5-dihydropyrazolo[1,5-a]pyrimidine-6-carboxamide (racemate)]: the pIC50 under setting [1] was 8.80.

As for `Cc1nn2c(O)c(C(=O)NC3CC3)c(=O)n(CC(C)C)c2c1/C=C/C(=O)N1C2CCC1COC2` [Synthesis Example 658, (E)-3-(3-(3-Oxa-8-azabicyclo[3.2.1]octan-8-yl)-3-oxoprop-1-en-1-yl)-N-cyclopropyl-7-hydroxy-4-isobutyl-2-methyl-5-oxo-4,5-dihydropyrazolo[1,5-a]pyrimidine-6-carboxamide], the pIC50 under setting [1] is 9.11.

For the compound `CNc1ncccc1-c1cc2n(CC(C)(C)C)c(=O)c(C(=O)NC3CC3)c(O)n2n1` [Synthesis Example 309, N-Cyclopropyl-7-hydroxy-2-(2-(methylamino)pyridin-3-yl)-4-neopentyl-5-oxo-4,5-dihydropyrazolo[1,5-a]pyrimidine-6-carboxamide], the pIC50 under setting [1] was 7.64. Same read-out and setting: then `CC(C)Cn1c(=O)c(C(=O)NC2CC2)c(O)n2ncc(/C=C/C(=O)N3[C@H](C)CC[C@H]3C)c12` [compound 590, N-Cyclopropyl-3-((E)-3-((2R,5R)-2,5-dimethylpyrrolidin-1-yl)-3-oxoprop-1-en-1-yl)-7-hydroxy-4-isobutyl-5-oxo-4,5-dihydropyrazolo[1,5-a]pyrimidine-6-carboxamide], with 8.96. As for `CC1(Cn2c(=O)c(C(=O)NC3CC3)c(O)n3ncc(/C=C/C(=O)N4CCOCC4)c23)CC1` [Synthesis Example 366, (E)-N-Cyclopropyl-7-hydroxy-4-((1-methylcyclopropyl)methyl)-3-(3-morpholino-3-oxoprop-1-en-1-yl)-5-oxo-4,5-dihydropyrazolo[1,5-a]pyrimidine-6-carboxamide], the pIC50 under setting [1] is 9.12. On to `CC(C)Cn1c(=O)c(C(=O)NC2CC2)c(O)n2ncc(/C=C/C(=O)N3C[C@H](C)OC[C@H]3C)c12` [Synthesis Example 718, N-Cyclopropyl-3-((E)-3-((2S,5R)-2,5-dimethylmorpholino)-3-oxoprop-1-en-1-yl)-7-hydroxy-4-isobutyl-5-oxo-4,5-dihydropyrazolo[1,5-a]pyrimidine-6-carboxamide], for which the pIC50 under setting [2] was 9.13. As to `CC(C)Cn1c(=O)c(C(=O)NC2CC2)c(O)n2ncc(/C=C/C(=O)N3CCC[C@H]3c3ccccc3)c12` [Synthesis Example 727, (S,E)-N-Cyclopropyl-7-hydroxy-4-isobutyl-5-oxo-3-(3-oxo-3-(2-phenylpyrrolidin-1-yl)prop-1-en-1-yl)-4,5-dihydropyrazolo[1,5-a]pyrimidine-6-carboxamide], the pIC50 under setting [2] was 8.87.

Take `CC(C)Cn1c(=O)c(C(=O)NC2CC2)c(O)n2ncc(/C=C/C(=O)N3CCN(CC(F)(F)C(F)(F)F)CC3)c12` [compound 505, (E)-N-Cyclopropyl-7-hydroxy-4-isobutyl-5-oxo-3-(3-oxo-3-(4-(2,2,3,3,3-pentafluoropropyl)piperazin-1-yl)prop-1-en-1-yl)-4,5-dihydropyrazolo[1,5-a]pyrimidine-6-carboxamide]: under setting [1], the pIC50 was 8.72. On the same count and under the same terms, then `CC(C)Cn1c(=O)c(C(=O)NC2CC2)c(O)n2nc3c(c12)CCC(=O)N3` [Synthesis Example 404, N-Cyclopropyl-4-hydroxy-1-isobutyl-2,8-dioxo-1,2,7,8,9,10-hexahydropyrido[2′,3′:3,4]pyrazolo[1,5-a]pyrimidine-3-carboxamide], with 9.20; and `CC(C)Cn1c(=O)c(C(=O)NC2CC2)c(O)n2ncc(COc3ccccc3)c12` [Synthesis Example 260, N-Cyclopropyl-7-hydroxy-4-isobutyl-5-oxo-3-(phenoxymethyl)-4,5-dihydropyrazolo[1,5-a]pyrimidine-6-carboxamide], with 8.90. Same read-out and setting: then `CC(C)Cn1c(=O)c(C(=O)NC2CC2)c(O)n2ncc(/C=C/C3CC3)c12` [Synthesis Example 246, (E)-N-Cyclopropyl-3-(2-cyclopropylvinyl)-7-hydroxy-4-isobutyl-5-oxo-4,5-dihydropyrazolo[1,5-a]pyrimidine-6-carboxamide], with 8.92.

Turning to `CC(C)Cn1c(=O)c(C(=O)NC2CC2)c(O)n2ncc(/C=C/C(=O)N3CC(F)C3)c12` [compound 554, (E)-N-Cyclopropyl-3-(3-(3-fluoroazetidin-1-yl)-3-oxoprop-1-en-1-yl)-7-hydroxy-4-isobutyl-5-oxo-4,5-dihydropyrazolo[1,5-a]pyrimidine-6-carboxamide], the pIC50 under setting [1] was 9.11.

For `CC(C)(C)Cn1c(=O)c(C(=O)NC2CC2)c(O)n2nc(N)c(Cl)c12` [compound 447, 2-Amino-3-chloro-N-cyclopropyl-7-hydroxy-4-neopentyl-5-oxo-4,5-dihydropyrazolo[1,5-a]pyrimidine-6-carboxamide hydrochloride], under setting [1], the pIC50 was 8.67.

For `Cc1nn2c(O)c(C(=O)NC3CC3)c(=O)n(CC(C)C)c2c1/C=C/C(=O)N(C)Cc1cccnc1` [Synthesis Example 637, (E)-N-Cyclopropyl-7-hydroxy-4-isobutyl-2-methyl-3-(3-(methyl(pyridin-3-ylmethyl)amino)-3-oxoprop-1-en-1-yl)-5-oxo-4,5-dihydropyrazolo[1,5-a]pyrimidine-6-carboxamide], under setting [1], the pIC50 was 9.05. For the compound `CC(C)(C)Cn1c(=O)c(C(=O)NCC(F)(F)F)c(O)n2nc(Br)cc12` [Synthesis Example 272, 2-Bromo-7-hydroxy-4-neopentyl-5-oxo-N-(2,2,2-trifluoroethyl)-4,5-dihydropyrazolo[1,5-a]pyrimidine-6-carboxamide], the pIC50 under setting [1] is 8.42.

The record behind these values is patent publication US20240092784A1, “CONDENSED HETEROCYCLIC COMPOUND” (NISSAN CHEMICAL CORPORATION, priority 2020, published 2024).
